Laboratory results taken from patent US7981878B2, “Tumor treatment with gliotoxin derivatives” (priority 2005, dated 2011).

Legend:
[1] = biological target: T1, Notch2 (Homo sapiens, UniProt Q04721); experiment: Notch2 activity in PBMCs from healthy donors by EMSA; assay type: cell-based; settings: TPA-stimulated PBMCs, 0.2 μM gliotoxin, 4 hours
T1 construct: endogenous in cells; host or cells: PBMCs from healthy donors, with or without TPA
Protocol: FIG. 4: Gliotoxin induces apoptosis in unstimulated as well as in TPA-stimulated B-CLL cells within 4 hours. Normal PBMCs (peripheral blood mononuclear cells) from healthy donors show a markedly lower Notch2 activity. Although gliotoxin inhibits Notch2 also in normal, TPA-stimulated cells, the gliotoxin-caused apoptosis rate is markedly lower in normal cells as compared to B-CLL cells. Non-stimulated and TPA stimulated PBMC's from healthy donors (HD) are less sensitive to 0.2 μM Gliotoxin despite a basal Notch2 activity. PBMC's and CLL cells were incubated with 0.2 μM Gliotoxin with or without TPA for 4 hours and the Notch2 activity as well as the percentage of apoptotic cells were determined by EMSA and FACS analysis, respectively.
After 4 hours of gliotoxin treatment, massive signs of the starting apoptosis (AnnexinV+) could already be recognized in B-CLL cells. This effect was increased by TPA (a phorbol ester which stimulates the activation of lymphocytes).

[2] = tested on: Huh7 (hepatocellular carcinoma); experiment: Cell count analysis Huh7; assay type: cell-based, human; settings: Huh7, 200 nM gliotoxin, 72 h
Protocol: (§1) FIG. 8 a-d: Effects of gliotoxin on cell counts of various human tumour cell lines in vitro. Cell counts of a) hepatocellular carcinoma cell lines HepG2, Huh7, SNU398, Hep3b, HeLa (cervix) and the cholangiocarcinoma cell line NEC as well as b) the pancreatic cancer cell line Panc-1 and the melanoma cell lines d) MelJuso, Meljuso-Bcl-2 (+) and 607B after 72 h treatment with 200 nM gliotoxin; c-d) Cell count dose range experiments with c) pancreatic carcinoma cell lines Panc-1 and MiaPaCa as well as melanoma cell lines MelJuso, 518A2 and 607B using 25, 50 100 and 200 nM gliotoxin for 24 h. All data are given relative to control ±standard deviation.
(§2) Tumour cells were seeded at a density of 10,000 cells/well in 24-well plates. 24 h after seeding, medium containing gliotoxin was added to yield desired concentrations of gliotoxin. At time points indicated, culture medium was removed by suction. Adherent cells were washed with DPBS (Cambrex, Verviers, Belgium) and incubated with trypsin (Gibco) at 37° C. Detached cells were transferred to test tubes containing Cellpack isotonic fluid (Sysmex Europe, Bornbarch, Germany) and counted with a Coulter Z1 electronic cell counter (Beckman Coulter, Bedford, UK).

[3] = tested on: SNU398 (hepatocellular carcinoma); experiment: Cell count analysis SNU398; assay type: cell-based, human
Protocol: as §1, §2

[4] = tested on: Panc-1 (pancreas carcinoma); experiment: Cell count analysis Panc-1; assay type: cell-based, human
Protocol: as §1, §2

[5] = tested on: Meljuso-wt (melanoma); experiment: Cell count analysis Meljuso-wt; assay type: cell-based, human
Protocol: as §1, §2

[6] = tested on: 518A2 (melanoma); experiment: Apoptosis flow cytometry (Annexin V / 7-AAD) 518A2; assay type: cell-based, human; settings: 518A2, 200 nM gliotoxin, 24 h
Protocol: (§3) FIG. 10 a-b: Effects of gliotoxin on Notch2 regulation and apoptosis. The melanoma cell line 518A2 (A) and the pancreatic cancer cell line Panc-1 (B) were treated with 200 nM gliotoxin or vehicle control for 24 h Notch2 activity was analysed by band shift assay. Apoptosis was measured as annexin V and 7-AAD double positivity by FACS. Data are given as percentage of apoptotic cells ±standard deviation.
Tumour cells were seeded at a density of 50,000 cells/well in 6 well plates. 24 h after seeding, medium containing gliotoxin was added to yield desired concentrations of gliotoxin. After further 24 h cells were harvested, counted and washed twice with PBS. Then, 100,000 cells were resuspended in 100 μl binding buffer and stained with Annexin V-PE and 7-AAD (both Becton Dickinson, N.J., USA) according to manufacturer's recommendations. After 20 minutes incubation time at room temperature in the dark, 400 μl binding buffer was added and immediately analyzed on a FACScalibur flow cytometer using CellQuest software (both Becton Dickinson, N.J., USA)

[7] = tested on: Notch2; experiment: Notch2 activity band shift assay in Panc-1; assay type: cell-based, human; settings: Panc-1, 200 nM gliotoxin, 24 h
Protocol: as §3
500,000 cells were seeded on 12 cm^2 plates for 24 h and then treated with 200 nM gliotoxin. At the time points as indicated cells were harvested and immediately frozen at −80° C. The band shift assay was performed as described for B-CLL.

[8] = mice and rats; cited from earlier work

T1 sequence (Q04721 1697-2471 limits assumed): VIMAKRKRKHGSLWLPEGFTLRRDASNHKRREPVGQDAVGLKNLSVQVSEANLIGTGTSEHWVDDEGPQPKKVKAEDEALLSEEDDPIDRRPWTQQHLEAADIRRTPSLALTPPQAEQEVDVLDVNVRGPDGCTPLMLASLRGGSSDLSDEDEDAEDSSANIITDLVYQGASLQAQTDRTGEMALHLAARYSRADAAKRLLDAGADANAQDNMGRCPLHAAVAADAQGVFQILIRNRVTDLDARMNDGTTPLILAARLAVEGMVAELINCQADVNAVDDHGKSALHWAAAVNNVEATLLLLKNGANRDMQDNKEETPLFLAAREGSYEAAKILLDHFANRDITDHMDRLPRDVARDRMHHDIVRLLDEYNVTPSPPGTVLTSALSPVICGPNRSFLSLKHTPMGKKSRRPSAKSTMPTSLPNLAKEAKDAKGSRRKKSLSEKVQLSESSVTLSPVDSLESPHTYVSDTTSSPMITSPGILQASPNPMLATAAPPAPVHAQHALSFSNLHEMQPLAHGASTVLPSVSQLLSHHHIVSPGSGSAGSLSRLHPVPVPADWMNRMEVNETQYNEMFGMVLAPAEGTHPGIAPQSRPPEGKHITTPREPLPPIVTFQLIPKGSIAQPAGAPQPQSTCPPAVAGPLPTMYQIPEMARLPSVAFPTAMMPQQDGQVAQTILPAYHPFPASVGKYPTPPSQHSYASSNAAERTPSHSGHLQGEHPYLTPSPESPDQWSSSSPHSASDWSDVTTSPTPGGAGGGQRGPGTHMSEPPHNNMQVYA

SMILES: CN1C(=O)[C@]23CC4=CC=C[C@H](O)[C@H]4N2C(=O)[C@@]1(CO)SS3 [gliotoxin, [3R-(3α,5aβ,6β,10aα)]-2,3,5a,6-tetrahydro-6-hydroxy-3-(hydroxymethyl)-2-methyl-10H-3,10a-epi-dithiopyrazino[1,2-a]indol-1,4-dion]
- physiologic Notch2 activity (EMSA) [1]: marked reduction
- mean reduction of cell numbers compared to vehicle treated controls [2]: 31%
- mean reduction of cell numbers compared to vehicle treated controls ([3]; SNU398, 200 nM gliotoxin, 72 h): 96%
- response ([3]; SNU-398, 0.2 μM (60 ng/ml)): ~100%
- response ([4]; Panc-1, 0.2 μM (60 ng/ml)): ~100%
- effect on cell count ([4]; Panc-1, 200 nM gliotoxin, 72 h): very effective
- cytotoxicity in dose range experiment (cell count) ([4]; Panc-1, 25, 50, 100 and 200 nM, 24 h): clear dose dependent cytotoxicity
- response ([5]; MelJuso (−BCL2), 0.2 μM (60 ng/ml)): ~100%
- cytotoxicity in dose range experiment (cell count) ([5]; Meljuso, 25, 50, 100 and 200 nM, 24 h): clear dose dependent cytotoxicity
- effect on cell count ([5]; Meljuso-wt, 200 nM gliotoxin, 72 h): very effective
- apoptotic cells (annexin V and 7-AAD double positive) [6]: 92%
- Notch2 activity (band shift assay) [7]: only partly inhibited
- LD50 [8]: 25 to 50 mg/kg
